Results from US20260272967A1, “TRADITIONAL CHINESE MEDICINE COMPOSITION FOR TREATING LUNG INFLAMMATION RELATED DISEASES AND ITS USES” (XIYUAN HOSPITAL, CHINA ACADEMY OF CHINESE MEDICAL SCIENCES, priority 2023, published 2026).
Read-outs that look alike come from different tables or passages of the source.

Assays:
[1] = tested on: LPS-induced RAW264.7 cells; test: Inhibition of NO release in LPS-induced RAW264.7 cells, with Chou-Talalay synergy analysis (Experimental Example 1); assay type: cell-based, mouse; conditions: for NO Production Rate: LPS 50 ng/mL 24 h, LPS without drug = 100%; for IC50: read-out: IC50 (concentration at which NO production is 50%), LPS-induced RAW264.7 cells, NO release
Experimental: RAW264.7 cells were seeded in a 96-well cell culture plate at 1×10^6/mL and cultured for 24 h. […] The cells were pretreated with the serially diluted drug solutions for 2 h, and then treated with LPS (50 ng/mL) for 24 h. The cell supernatant was aspirated, the NO release level in the supernatant was determined, and the IC50 values of the four groups of drugs inhibiting NO release were calculated. The dose-effect relationships of the three single components and the three-component composition were imported into CalcuSyn software 2.0 (Biosoft, USA), and the inhibition rate-combination index plot (Fa-CI) was generated using the Chou-Talalay mathematical model. The Fa-CI plot can reflect the relationship between the CI value and the effective level of a certain biological index (i.e., the inhibitory effect on NO). The intensity and nature of the interaction between drugs can be quantitatively judged by the value of CI: CI>1 indicates antagonism, CI=1 indicates additive effect, and CI<1 indicates synergism.

RAW264.7 cells = conditions: reported by NICM Health Research Institute; cited from earlier work
ALI mice induced by LPS [2] = test: Mouse acute lung injury model: lung index, W/D, BALF leukocytes and protein (Experimental Example 5); assay type: in vivo; conditions: three-component 398 mg/kg intragastric, dexamethasone 5 mg/kg i.p.
Experimental: (§1) Establishment of mouse acute lung injury model: Mice were anesthetized with isoflurane, and LPS (1 mg/kg) was instilled into one side of the nasal cavity. After instillation, the mice were stood upright quickly, and returned to the original feeding cage after waking up to complete modeling.
(§2) All drugs were administered 0.5 h after establishing the mouse ALI model with LPS.
24 h after model establishment, mice were anesthetized with pentobarbital sodium and sacrificed by abdominal aorta bloodletting. Lung tissues were dissected and weighed, and the lung coefficient (lung tissue weight/mouse body weight) was calculated; the right upper lobe of the mouse lung was fixed in formalin, and pathological sections were made and stained with HE to observe pathological changes; the middle and lower lobes of the right lung of the mouse were weighed (wet weight), placed in a 60° C. oven to dry to constant weight, and weighed (dry weight), and the wet-to-dry weight ratio (wet weight/dry weight, W/D) was calculated. The right bronchus of the mouse was ligated, the left lobe of the lung was taken, and bronchoalveolar lavage fluid (BALF) was recovered after lavage with 0.8 mL PBS for three times. The total number of leukocytes and total protein concentration were determined using an automatic cell counter.

ALI mice induced by LPS [3] = test: Mouse acute lung injury model: BALF inflammatory factors and lung pathology (Experimental Example 6); assay type: in vivo; conditions: three-component 398 mg/kg intragastric, dexamethasone 5 mg/kg i.p.
Experimental: as §1, §2
The levels of inflammatory factors IL-1B, IL-6 and TNF-α in BALF were determined in strict accordance with the instructions of the inflammatory factor detection kit.
The right upper lobe of the mouse lung was fixed with tissue fixative for 72 hours, and HE-stained sections were prepared by paraffin embedding, sectioning, dehydration and staining. Lung tissue lesions were observed under a microscope.

Row | Structure (SMILES) | NO Production Rate ([1]; 1.63 μM) [%] | NO Production Rate ([1]; 3.125 μM) [%] | NO Production Rate ([1]; 6.25 μM) [%] | NO Production Rate ([1]; 12.5 μM) [%] | NO Production Rate ([1]; 25 μM) [%] | NO Production Rate ([1]; 50 μM) [%] | NO Production Rate ([1]; 100 μM) [%] | inhibiting LPS-induced NO release from RAW264.7 cells (RAW264.7 cells) | NO Production Rate ([1]; 0.86 μM) [%] | IC50 ([1]; Mus musculus) [µM] | other results
1 | CCCCC/C=C/C(=O)CCc1ccc(O)c(OC)c1 [6-Shogaol, 6-shogaol] | 60.42 ± 6.14 | 56.75 ± 6.97 | 41.41 ± 2.75 | 11.42 ± 2.69 | 8.67 ± 0.84 | 6.11 ± 2.41 | 5.89 ± 3.38 | a certain effect | – | – | IC50 [1]: 3.23 ± 0.42 µM
2 | O=c1cc(-c2ccccc2)oc2cc(O)c(O)c(O)c12 [Baicalein, baicalein] | – | – | – | 60.52 ± 5.14 | 40.47 ± 6.87 | 7.77 ± 3.47 | 2.44 ± 2.33 | a certain effect | 90.14 ± 7.64 | 11.3 ± 1.32 | –
3 | C[C@@H]1C[C@H]2[C@@H]3CCC4=CC(=O)C=C[C@]4(C)[C@@]3(F)[C@@H](O)C[C@]2(C)[C@@]1(O)C(=O)CO [Dexamethasone, dexamethasone] | – | – | – | – | – | – | – | – | – | – | BALF Leukocytes (ALI mice induced by LPS [2]; 24 h after LPS): 18.760 ± 7.468 ×10^5 cells/mL; BALF Protein Concentration (ALI mice induced by LPS [2]; 24 h after LPS): 0.814 ± 0.183 mg/mL; Lung Index (BW) (ALI mice induced by LPS [2]; lung tissue weight/body weight, 24 h after LPS 1 mg/kg intranasal, 0.5 h after LPS): 0.816 ± 0.089; Wet-to-Dry Weight Ratio (W/D) (ALI mice induced by LPS [2]; right lung lobes, 24 h after LPS): 4.701 ± 0.221; IL-1β in BALF (ALI mice induced by LPS [3]; ALI mice, 24 h after LPS): 186.475 ± 76.810 pg/mL; IL-6 in BALF (ALI mice induced by LPS [3]; ALI mice, 24 h after LPS): 819.19 ± 506.63 pg/mL; TNF-α in BALF (ALI mice induced by LPS [3]; ALI mice, 24 h after LPS): 345.080 ± 239.594 pg/mL; Pathological Score (ALI mice induced by LPS [3]; lung tissue, HE staining): 6.70 ± 2.50
4 | CC1(C)[C@@H](O[C@H]2O[C@H](C(=O)O)[C@@H](O)[C@H](O)[C@H]2O[C@@H]2O[C@H](C(=O)O)[C@@H](O)[C@H](O)[C@H]2O)CC[C@]2(C)[C@H]3C(=O)C=C4[C@@H]5C[C@@](C)(C(=O)O)CC[C@]5(C)CC[C@@]4(C)[C@]3(C)CC[C@@H]12 [Glycyrrhizic Acid, glycyrrhizic acid] | 88.06 ± 5.38 | 86.28 ± 2.29 | 81.79 ± 5.81 | 80.67 ± 4.74 | 71.04 ± 3.50 | 55.35 ± 3.98 | 43.54 ± 6.10 | a certain effect | 105.02 ± 8.02 | 78.8 ± 11.9 | –
5 | C=C1CC[C@@H]2[C@](C)(CO)[C@H](O)CC[C@@]2(C)[C@@H]1C/C=C1/C(=O)OC[C@H]1O [andrographolide] | – | – | – | – | – | – | – | a certain effect | – | – | –
6 | O=c1cc(-c2ccc(O)c(O)c2)oc2cc(O)cc(O)c12 [luteolin] | – | – | – | – | – | – | – | a certain effect | – | – | –
